Earlier results as cited in patent US6375930B2, “Membrane incorporation of texaphyrins” (Board of Regents, The University of Texas System, priority 1996, dated 2002).

What was measured:
[1] = Levy, Semin. Oncol. 1994
[2] = require hydrophobic vehicles for administration

duration of cutaneous photosensitivity [1] | solubility in aqueous solutions [2] | Substance
a few days | insoluble | benzoporphyrin derivative [BPD verteporfin]
up to 6 weeks | – | porfimer sodium
– | insoluble | tin purpurin
